Assay results taken from ChEMBL document CHEMBL4507269, “Data for DCP probe BAY-386” (2021).

Legend:
[1] = target: Histamine H3 receptor (Homo sapiens) (UniProt Q9Y5N1); details: Compound concentration 10.0 uM
[2] = target: Mitogen-activated protein kinase kinase kinase 20 (Homo sapiens) (UniProt Q9NYL2); details: Compound concentration 1000.0 nM
[3] = target: Delta-type opioid receptor (Homo sapiens) (UniProt P41143); details: Compound concentration 10.0 uM
[4] = target: Phosphatidylinositol 4,5-bisphosphate 3-kinase catalytic subunit delta isoform (Homo sapiens) (UniProt O00329); details: Compound concentration 1000.0 nM
[5] = target: Mitogen-activated protein kinase 9 (Homo sapiens) (UniProt P45984); details: Compound concentration 1000.0 nM
[6] = target: Serine/threonine-protein kinase MRCK alpha (Homo sapiens) (UniProt Q5VT25); details: Compound concentration 1000.0 nM
[7] = target: Serine/threonine-protein kinase RIO1 (Homo sapiens) (UniProt Q9BRS2); details: Compound concentration 1000.0 nM
[8] = target: Phosphatidylinositol 4,5-bisphosphate 3-kinase catalytic subunit gamma isoform (Homo sapiens) (UniProt P48736); details: Compound concentration 1000.0 nM
[9] = target: Serine/threonine-protein kinase N2 (Homo sapiens) (UniProt Q16513); details: Compound concentration 1000.0 nM
[10] = target: Non-receptor tyrosine-protein kinase TYK2 (Homo sapiens) (UniProt P29597); details: Compound concentration 1000.0 nM
[11] = target: Histamine H1 receptor (Homo sapiens) (UniProt P35367); details: Compound concentration 10.0 uM
Sequence of Histamine H1 receptor (Homo sapiens) (P35367 whole entry): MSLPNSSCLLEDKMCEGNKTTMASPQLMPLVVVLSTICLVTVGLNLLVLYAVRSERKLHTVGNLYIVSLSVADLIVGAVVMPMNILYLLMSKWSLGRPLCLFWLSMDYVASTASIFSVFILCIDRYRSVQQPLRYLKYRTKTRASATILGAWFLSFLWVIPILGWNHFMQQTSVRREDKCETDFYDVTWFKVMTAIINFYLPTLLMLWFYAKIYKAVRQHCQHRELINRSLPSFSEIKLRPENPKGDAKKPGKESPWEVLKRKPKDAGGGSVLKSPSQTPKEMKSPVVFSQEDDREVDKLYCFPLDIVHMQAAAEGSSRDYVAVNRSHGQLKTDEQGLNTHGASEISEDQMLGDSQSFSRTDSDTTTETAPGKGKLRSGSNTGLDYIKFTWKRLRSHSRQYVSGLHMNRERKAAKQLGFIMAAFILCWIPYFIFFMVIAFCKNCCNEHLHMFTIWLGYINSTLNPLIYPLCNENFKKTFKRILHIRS

[12] = target: Serine/threonine-protein kinase Chk1 (Homo sapiens) (UniProt O14757); details: Compound concentration 1000.0 nM
[13] = target: MAP kinase-activated protein kinase 5 (Homo sapiens) (UniProt Q8IW41); details: Compound concentration 1000.0 nM
[14] = target: Tyrosine-protein kinase Mer (Homo sapiens) (UniProt Q12866); details: Compound concentration 1000.0 nM
[15] = target: Hormonally up-regulated neu tumor-associated kinase (Homo sapiens) (UniProt P57058); details: Compound concentration 1000.0 nM
Sequence of Hormonally up-regulated neu tumor-associated kinase (Homo sapiens) (P57058 whole entry): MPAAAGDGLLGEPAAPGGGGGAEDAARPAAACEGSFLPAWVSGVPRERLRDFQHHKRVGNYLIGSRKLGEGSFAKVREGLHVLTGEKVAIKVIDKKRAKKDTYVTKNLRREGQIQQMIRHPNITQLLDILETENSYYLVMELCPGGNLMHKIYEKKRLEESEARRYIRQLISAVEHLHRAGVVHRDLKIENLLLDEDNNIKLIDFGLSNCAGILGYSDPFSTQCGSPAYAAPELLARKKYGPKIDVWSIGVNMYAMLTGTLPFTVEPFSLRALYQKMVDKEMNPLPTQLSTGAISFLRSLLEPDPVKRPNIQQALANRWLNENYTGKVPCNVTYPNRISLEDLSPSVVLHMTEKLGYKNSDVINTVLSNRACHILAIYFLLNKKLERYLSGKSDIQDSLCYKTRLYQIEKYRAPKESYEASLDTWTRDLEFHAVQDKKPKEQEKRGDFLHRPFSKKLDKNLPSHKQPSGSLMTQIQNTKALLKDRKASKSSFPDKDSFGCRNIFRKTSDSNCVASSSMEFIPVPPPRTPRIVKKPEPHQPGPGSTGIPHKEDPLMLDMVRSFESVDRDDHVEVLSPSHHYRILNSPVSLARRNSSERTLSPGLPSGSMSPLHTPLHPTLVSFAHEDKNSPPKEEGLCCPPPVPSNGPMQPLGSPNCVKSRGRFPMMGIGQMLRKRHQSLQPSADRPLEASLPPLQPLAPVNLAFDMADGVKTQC

[16] = target: Serine/threonine-protein kinase 16 (Homo sapiens) (UniProt O75716); details: Compound concentration 1000.0 nM
[17] = target: Serine/threonine-protein kinase tousled-like 2 (Homo sapiens) (UniProt Q86UE8); details: Compound concentration 1000.0 nM
[18] = target: Histamine H2 receptor (Homo sapiens) (UniProt P25021); assay: H2 (h) Eurofins-Cerep Cellular and Nuclear Receptor Functional Assays; details: Compound concentration 10.0 uM
Sequence of Histamine H2 receptor (Homo sapiens) (P25021 whole entry): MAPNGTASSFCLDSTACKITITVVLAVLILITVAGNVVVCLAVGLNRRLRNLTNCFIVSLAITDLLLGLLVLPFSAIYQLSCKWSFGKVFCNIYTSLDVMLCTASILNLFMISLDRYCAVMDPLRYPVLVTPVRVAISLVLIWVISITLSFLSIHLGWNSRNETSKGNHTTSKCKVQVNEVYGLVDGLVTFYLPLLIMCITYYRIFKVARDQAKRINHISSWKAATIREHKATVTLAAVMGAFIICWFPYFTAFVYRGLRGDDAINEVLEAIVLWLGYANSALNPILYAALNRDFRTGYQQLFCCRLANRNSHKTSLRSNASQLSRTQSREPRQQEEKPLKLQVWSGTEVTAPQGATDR

[19] = target: Inhibitor of nuclear factor kappa-B kinase subunit epsilon (Homo sapiens) (UniProt Q14164); details: Compound concentration 1000.0 nM
[20] = target: Serine/threonine-protein kinase 26 (Homo sapiens) (UniProt Q9P289); details: Compound concentration 1000.0 nM
[21] = target: Serine/threonine-protein kinase 10 (Homo sapiens) (UniProt O94804); details: Compound concentration 1000.0 nM
Sequence of Serine/threonine-protein kinase 10 (Homo sapiens) (O94804 whole entry, looked up): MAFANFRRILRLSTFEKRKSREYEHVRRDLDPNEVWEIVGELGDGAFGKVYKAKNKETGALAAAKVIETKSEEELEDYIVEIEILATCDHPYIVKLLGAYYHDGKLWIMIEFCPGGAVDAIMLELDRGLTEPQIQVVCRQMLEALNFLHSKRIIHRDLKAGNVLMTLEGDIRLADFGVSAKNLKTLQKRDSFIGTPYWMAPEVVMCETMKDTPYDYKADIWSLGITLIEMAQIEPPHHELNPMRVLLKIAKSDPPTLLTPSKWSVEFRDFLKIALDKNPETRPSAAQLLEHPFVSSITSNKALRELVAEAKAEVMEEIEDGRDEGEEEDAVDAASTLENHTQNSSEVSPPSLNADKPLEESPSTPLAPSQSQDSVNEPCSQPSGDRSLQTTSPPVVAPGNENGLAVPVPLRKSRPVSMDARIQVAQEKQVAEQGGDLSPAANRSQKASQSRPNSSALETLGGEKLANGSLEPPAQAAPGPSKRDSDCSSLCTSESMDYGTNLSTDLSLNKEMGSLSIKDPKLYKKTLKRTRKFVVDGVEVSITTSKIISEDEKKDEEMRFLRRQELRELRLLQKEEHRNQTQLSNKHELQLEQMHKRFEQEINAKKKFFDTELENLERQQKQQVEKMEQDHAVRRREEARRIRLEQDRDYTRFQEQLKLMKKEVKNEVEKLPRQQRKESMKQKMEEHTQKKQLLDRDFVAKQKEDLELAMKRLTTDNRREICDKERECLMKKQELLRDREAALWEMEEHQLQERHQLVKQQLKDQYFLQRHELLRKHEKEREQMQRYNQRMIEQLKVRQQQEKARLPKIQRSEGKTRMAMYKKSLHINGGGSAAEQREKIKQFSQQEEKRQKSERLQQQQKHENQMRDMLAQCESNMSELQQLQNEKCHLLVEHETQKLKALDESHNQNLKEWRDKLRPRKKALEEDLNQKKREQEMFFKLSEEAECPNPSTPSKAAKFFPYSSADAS

[22] = target: Dual specificity protein kinase CLK1 (Homo sapiens) (UniProt P49759); details: Compound concentration 1000.0 nM
[23] = target: Receptor-interacting serine/threonine-protein kinase 1 (Homo sapiens) (UniProt Q13546); details: Compound concentration 1000.0 nM
[24] = target: Tyrosine-protein kinase HCK (Homo sapiens) (UniProt P08631); details: Compound concentration 1000.0 nM
[25] = target: Ephrin type-B receptor 2 (Homo sapiens) (UniProt P29323); details: Compound concentration 1000.0 nM
[26] = system: Epidermal growth factor receptor (Homo sapiens), P00533 [G719C]; details: Compound concentration 1000.0 nM
[27] = target: Aurora kinase B (Homo sapiens) (UniProt Q96GD4); details: Compound concentration 1000.0 nM
[28] = target: Rho-associated protein kinase 2 (Homo sapiens) (UniProt O75116); details: Compound concentration 1000.0 nM
[29] = target: Serine/threonine-protein kinase BRSK2 (Homo sapiens) (UniProt Q8IWQ3); details: Compound concentration 1000.0 nM
[30] = system: Mast/stem cell growth factor receptor Kit (Homo sapiens), P10721 [V559D,V654A]; details: Compound concentration 1000.0 nM
[31] = target: Calcium-dependent protein kinase 1 (Plasmodium falciparum) (UniProt P62344); details: Compound concentration 1000.0 nM
[32] = target: Receptor tyrosine-protein kinase erbB-3 (Homo sapiens) (UniProt P21860); details: Compound concentration 1000.0 nM
[33] = target: Tyrosine-protein kinase ABL2 (Homo sapiens) (UniProt P42684); details: Compound concentration 1000.0 nM
Sequence of Tyrosine-protein kinase ABL2 (Homo sapiens) (P42684 whole entry): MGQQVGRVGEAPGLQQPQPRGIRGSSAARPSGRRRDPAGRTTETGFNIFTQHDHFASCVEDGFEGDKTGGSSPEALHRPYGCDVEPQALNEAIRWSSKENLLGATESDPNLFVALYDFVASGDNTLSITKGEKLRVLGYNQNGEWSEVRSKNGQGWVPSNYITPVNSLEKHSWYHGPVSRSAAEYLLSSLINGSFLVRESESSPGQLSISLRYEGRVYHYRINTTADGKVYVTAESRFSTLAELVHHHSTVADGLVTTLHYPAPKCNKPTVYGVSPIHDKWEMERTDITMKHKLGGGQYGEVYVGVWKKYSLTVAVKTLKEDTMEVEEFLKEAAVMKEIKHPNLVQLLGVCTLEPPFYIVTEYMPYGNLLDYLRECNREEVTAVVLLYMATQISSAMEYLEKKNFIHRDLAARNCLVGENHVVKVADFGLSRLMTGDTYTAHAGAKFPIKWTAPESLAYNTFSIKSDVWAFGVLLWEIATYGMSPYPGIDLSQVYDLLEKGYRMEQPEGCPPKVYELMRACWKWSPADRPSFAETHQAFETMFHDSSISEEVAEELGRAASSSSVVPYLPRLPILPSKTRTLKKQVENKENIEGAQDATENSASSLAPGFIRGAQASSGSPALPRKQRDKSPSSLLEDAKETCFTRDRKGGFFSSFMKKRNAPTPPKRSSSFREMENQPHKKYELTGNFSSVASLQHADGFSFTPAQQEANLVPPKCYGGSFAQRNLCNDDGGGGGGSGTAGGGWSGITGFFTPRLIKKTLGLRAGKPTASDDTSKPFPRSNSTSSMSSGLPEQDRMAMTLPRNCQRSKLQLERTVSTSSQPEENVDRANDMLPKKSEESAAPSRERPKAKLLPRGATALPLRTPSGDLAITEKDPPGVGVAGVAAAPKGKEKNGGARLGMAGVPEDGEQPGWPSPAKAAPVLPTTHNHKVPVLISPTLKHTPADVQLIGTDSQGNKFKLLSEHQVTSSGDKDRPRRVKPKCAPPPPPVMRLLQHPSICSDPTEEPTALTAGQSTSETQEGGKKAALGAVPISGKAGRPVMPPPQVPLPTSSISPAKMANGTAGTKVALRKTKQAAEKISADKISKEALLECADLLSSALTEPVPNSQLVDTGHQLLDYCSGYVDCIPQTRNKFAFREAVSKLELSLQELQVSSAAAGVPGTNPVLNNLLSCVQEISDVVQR

[34] = target: Tyrosine-protein kinase receptor TYRO3 (Homo sapiens) (UniProt Q06418); details: Compound concentration 1000.0 nM
[35] = target: Serine/threonine-protein kinase PLK4 (Homo sapiens) (UniProt O00444); details: Compound concentration 1000.0 nM
[36] = target: MAP kinase-interacting serine/threonine-protein kinase 2 (Homo sapiens) (UniProt Q9HBH9); details: Compound concentration 1000.0 nM
[37] = target: Serine/threonine-protein kinase RIO2 (Homo sapiens) (UniProt Q9BVS4); details: Compound concentration 1000.0 nM
[38] = target: Rhodopsin kinase GRK7 (Homo sapiens) (UniProt Q8WTQ7); details: Compound concentration 1000.0 nM
Sequence of Rhodopsin kinase GRK7 (Homo sapiens) (Q8WTQ7 whole entry): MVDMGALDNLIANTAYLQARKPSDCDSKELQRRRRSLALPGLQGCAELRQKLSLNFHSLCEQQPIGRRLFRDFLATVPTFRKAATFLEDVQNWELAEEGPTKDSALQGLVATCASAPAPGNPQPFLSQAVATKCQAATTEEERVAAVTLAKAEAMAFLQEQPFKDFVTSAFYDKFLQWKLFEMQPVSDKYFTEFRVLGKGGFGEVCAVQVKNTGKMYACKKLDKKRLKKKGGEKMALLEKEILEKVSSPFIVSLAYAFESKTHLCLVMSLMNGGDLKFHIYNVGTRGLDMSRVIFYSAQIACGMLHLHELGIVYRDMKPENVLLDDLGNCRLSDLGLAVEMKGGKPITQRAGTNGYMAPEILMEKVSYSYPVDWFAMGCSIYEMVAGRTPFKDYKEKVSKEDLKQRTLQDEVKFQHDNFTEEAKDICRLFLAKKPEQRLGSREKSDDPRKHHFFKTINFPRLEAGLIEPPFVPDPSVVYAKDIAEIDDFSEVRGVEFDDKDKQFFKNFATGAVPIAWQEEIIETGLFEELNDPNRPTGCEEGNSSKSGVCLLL

[39] = target: Dual serine/threonine and tyrosine protein kinase (Homo sapiens) (UniProt Q6XUX3); details: Compound concentration 1000.0 nM
[40] = target: Myosin light chain kinase 2, skeletal/cardiac muscle (Homo sapiens) (UniProt Q9H1R3); details: Compound concentration 1000.0 nM
[41] = target: Cyclin-dependent kinase 19 (Homo sapiens) (UniProt Q9BWU1); details: Compound concentration 1000.0 nM
Sequence of Cyclin-dependent kinase 19 (Homo sapiens) (Q9BWU1 whole entry): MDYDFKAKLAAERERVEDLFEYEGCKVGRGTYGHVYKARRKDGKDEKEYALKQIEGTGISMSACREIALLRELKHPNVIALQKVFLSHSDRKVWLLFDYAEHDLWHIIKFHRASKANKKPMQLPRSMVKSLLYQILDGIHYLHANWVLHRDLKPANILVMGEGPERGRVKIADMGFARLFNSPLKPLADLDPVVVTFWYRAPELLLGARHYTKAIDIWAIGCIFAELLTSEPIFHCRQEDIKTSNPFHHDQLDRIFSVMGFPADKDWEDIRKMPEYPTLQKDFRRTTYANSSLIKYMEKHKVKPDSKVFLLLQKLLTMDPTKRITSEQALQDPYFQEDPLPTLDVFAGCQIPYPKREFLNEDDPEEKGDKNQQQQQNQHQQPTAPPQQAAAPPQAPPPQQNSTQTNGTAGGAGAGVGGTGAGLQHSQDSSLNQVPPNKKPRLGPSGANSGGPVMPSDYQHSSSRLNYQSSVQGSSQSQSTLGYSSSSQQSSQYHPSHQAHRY

[42] = target: Serine/threonine-protein kinase/endoribonuclease IRE1 (Homo sapiens) (UniProt O75460); details: Compound concentration 1000.0 nM
[43] = target: Serine/threonine-protein kinase 33 (Homo sapiens) (UniProt Q9BYT3); details: Compound concentration 1000.0 nM
[44] = target: Mitogen-activated protein kinase 15 (Homo sapiens) (UniProt Q8TD08); details: Compound concentration 1000.0 nM
[45] = target: Serine/threonine-protein kinase 38-like (Homo sapiens) (UniProt Q9Y2H1); details: Compound concentration 1000.0 nM

O=C(N1CCS(=O)(=O)CC1)N1C[C@H](c2ccc(OC(F)(F)F)cc2)C[C@H](c2nc(C3CC3)no2)C1 [BAY-386]
inhibition [1]: -6.71% | residual activity [2]: 100% | inhibition [3]: -2.63% | residual activity [4]: 97% | residual activity [5]: 84% | residual activity [6]: 100% | residual activity [7]: 100% | residual activity [8]: 100% | residual activity [9]: 100% | residual activity [10]: 94% | inhibition [11]: -5.32% | residual activity [12]: 100% | residual activity [13]: 94% | residual activity [14]: 100% | residual activity [15]: 100% | residual activity [16]: 100% | residual activity [17]: 100% | % Inhibition of Control Agonist Response (Mean n=2) [18]: 9.6% | % of Control Agonist Response (Mean n=2) [18]: -0.7% | residual activity [19]: 100% | residual activity [20]: 94% | residual activity [21]: 100% | residual activity [22]: 98% | residual activity [23]: 100% | residual activity [24]: 100% | residual activity [25]: 100% | residual activity [26]: 97% | residual activity [27]: 100% | residual activity [28]: 98% | residual activity [29]: 100% | residual activity [30]: 100% | residual activity [31]: 92% | residual activity [32]: 100% | residual activity [33]: 100% | residual activity [34]: 98% | residual activity [35]: 100% | residual activity [36]: 94% | residual activity [37]: 100% | residual activity [38]: 100% | residual activity [39]: 100% | residual activity [40]: 100% | residual activity [41]: 100% | residual activity [42]: 96% | residual activity [43]: 99% | residual activity [44]: 100% | residual activity [45]: 100%

Cc1noc([C@H]2C[C@@H](c3ccc(C(F)(F)F)cc3)CN(C(=O)N3CCS(=O)(=O)C3)C2)n1 [BAY-448]
inhibition [1]: 5.78% | residual activity [2]: 87% | inhibition [3]: -0.62% | residual activity [4]: 100% | residual activity [5]: 99% | residual activity [6]: 100% | residual activity [7]: 100% | residual activity [8]: 85% | residual activity [9]: 100% | residual activity [10]: 100% | inhibition [11]: 11.5% | residual activity [12]: 100% | residual activity [13]: 100% | residual activity [14]: 100% | residual activity [15]: 100% | residual activity [16]: 100% | residual activity [17]: 100% | % Inhibition of Control Agonist Response (Mean n=2) [18]: -2.8% | % of Control Agonist Response (Mean n=2) [18]: 2.6% | residual activity [19]: 100% | residual activity [20]: 74% | residual activity [21]: 100% | residual activity [22]: 100% | residual activity [23]: 100% | residual activity [24]: 100% | residual activity [25]: 100% | residual activity [26]: 100% | residual activity [27]: 100% | residual activity [28]: 100% | residual activity [29]: 100% | residual activity [30]: 100% | residual activity [31]: 82% | residual activity [32]: 100% | residual activity [33]: 100% | residual activity [34]: 100% | residual activity [35]: 88% | residual activity [36]: 100% | residual activity [37]: 100% | residual activity [38]: 100% | residual activity [39]: 94% | residual activity [40]: 100% | residual activity [41]: 100% | residual activity [42]: 100% | residual activity [43]: 100% | residual activity [44]: 100% | residual activity [45]: 100%
